Experimental data from the supplement of paper PMC8967900.

Key:
Assay in all cases: selective drug sensitivity score (sDSS, relative to normal bone marrow) (sDSS (score)); higher = more potent and effective on the cell line relative to normal bone marrow cells
Settings in all cases: 72 h
MOLT-14 = system: MOLT-14
MHH-CALL-2 = system: MHH-CALL-2
KASUMI-2 = system: KASUMI-2
LC4-1 = system: LC4-1
MOLT-4 = system: MOLT-4
COG-LL-319h = system: COG-LL-319h
MHH-CALL-3 = system: MHH-CALL-3
NALM-6 = system: NALM-6
DND-41 = system: DND-41
KASUMI-10 = system: KASUMI-10
PF-382 = system: PF-382
ALL-PO = system: ALL-PO
RPMI-8402 = system: RPMI-8402
P12-ICHIKAWA = system: P12-ICHIKAWA
COG-LL-394h = system: COG-LL-394h
CCRF-CEM = system: CCRF-CEM
REH = system: REH
SEM cells = system: SEM cells
HAL-01 = system: HAL-01
MN-60 = system: MN-60
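Note: ALL cell lines in 384-well plates, five doses spanning 10,000-fold, each plate scaled between vehicle and 100 µmol/L benzalkonium chloride controls, sDSS an adapted area-under-curve metric.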

| SMILES | selective drug sensitivity score (MOLT-14) | selective drug sensitivity score (MHH-CALL-2) | selective drug sensitivity score (KASUMI-2) | selective drug sensitivity score (LC4-1) | selective drug sensitivity score (MOLT-4) | selective drug sensitivity score (COG-LL-319h) | selective drug sensitivity score (MHH-CALL-3) | selective drug sensitivity score (NALM-6) | selective drug sensitivity score (DND-41) | selective drug sensitivity score (KASUMI-10) | selective drug sensitivity score (PF-382) | selective drug sensitivity score (ALL-PO) | selective drug sensitivity score (RPMI-8402) | selective drug sensitivity score (P12-ICHIKAWA) | selective drug sensitivity score (COG-LL-394h) | selective drug sensitivity score (CCRF-CEM) | selective drug sensitivity score (REH) | selective drug sensitivity score (SEM cells) | selective drug sensitivity score (HAL-01) | selective drug sensitivity score (MN-60) |
| --- | --- | --- | --- | --- | --- | --- | --- | --- | --- | --- | --- | --- | --- | --- | --- | --- | --- | --- | --- | --- |
| NCCNc1ccc(NCCN)c2c1C(=O)c1ccncc1C2=O [Pixantrone] (top concentration 10000 nM) | -2.76 | 1.34 | -2.76 | -2.76 | -2.76 | -2.76 | -2.76 | -2.76 | -1.76 | -1.36 | -1.86 | -2.76 | -2.76 | -2.76 | -2.66 | -2.06 | 0.24 | -1.36 | -1.36 | -2.76 |
| c1cc(CN2CCCNCCNCCCNCC2)ccc1CN1CCCNCCNCCCNCC1 [Plerixafor] (top concentration 10000 nM) | 0 | 0 | 0 | 0 | 0 | 0 | 0 | 0.3 | 0 | 0 | 0 | 0 | 0 | 0 | 0 | 0 | 0.1 | 0 | 0 | 0 |
| O=C(c1ccc(OCCN2CCCCC2)cc1)c1c(-c2ccc(O)cc2)sc2cc(O)ccc12 [Raloxifene] (top concentration 10000 nM) | 2.92 | 0.22 | -2.28 | -0.38 | 1.42 | -2.28 | -2.28 | -0.88 | 4.52 | -2.28 | -0.58 | -0.38 | 1.92 | -0.48 | 0.42 | 1.42 | 4.62 | 1.62 | 1.82 | 1.92 |
| CN(C)C(=O)c1cc2cnc(Nc3ccc(N4CCNCC4)cn3)nc2n1C1CCCC1 [Ribociclib] (top concentration 10000 nM) | 1.18 | 3.68 | -0.92 | 4.18 | -1.02 | 2.18 | 3.18 | 1.18 | 1.68 | 0.08 | 2.88 | 0.98 | 2.98 | 2.18 | -2.02 | 3.08 | -0.42 | 2.28 | 0.38 | -1.62 |
| CN1CCN(CCOc2cc(OC3CCOCC3)c3c(Nc4c(Cl)ccc5c4OCO5)ncnc3c2)CC1 [Saracatinib] (top concentration 10000 nM) | 7.98 | -0.52 | 1.78 | 2.98 | 1.58 | 12.8 | 0.08 | -1.22 | 2.18 | 1.48 | 8.18 | -0.02 | 4.98 | 0.08 | -2.02 | -1.52 | -2.02 | 0.08 | -1.32 | 3.38 |
| C=CC(=O)Nc1cccc(Nc2nc(Nc3ccc(OCCOC)cc3)ncc2F)c1 [Spebrutinib] (top concentration 1000 nM) | -0.16 | 5.84 | -0.16 | 0.54 | -0.16 | -0.06 | 2.34 | 2.04 | -0.16 | 3.64 | -0.16 | 4.14 | -0.16 | -0.16 | -0.16 | 1.64 | -0.16 | 3.74 | 8.34 | -0.16 |
| C[C@@H]1CN(Cc2ccc(F)cc2)[C@@H](C)CN1C(=O)c1cc2c(C(=O)C(=O)N(C)C)cn(C)c2cc1Cl [Talmapimod] (top concentration 10000 nM) | 0 | 0 | 0 | 0 | 0 | 0 | 0 | 0 | 0.5 | 0 | 0 | 3.2 | 0.8 | 0 | 0.7 | 0 | 2.8 | 0.4 | 0 | 0 |
| C[C@@H](C(=O)O)c1ccc(-c2ccccc2)c(F)c1 [Tarenflurbil] (top concentration 10000 nM) | -0.16 | -0.16 | -0.16 | 0.64 | 0.14 | -0.16 | -0.16 | 3.44 | 0.54 | -0.16 | -0.16 | -0.16 | -0.16 | -0.16 | -0.16 | -0.16 | -0.06 | -0.16 | 4.74 | -0.16 |
| CNC(=O)c1cc(COc2nnc(Nc3ccc(Cl)cc3)c3ccoc23)ccn1 [Telatinib] (top concentration 10000 nM) | 0 | 0.4 | 0 | 0.7 | 0 | 0 | 0 | 0 | 0 | 0 | 0 | 0 | 0 | 0 | 0 | 0 | 2.6 | 0.2 | 1.8 | 0 |
| O=c1sn(-c2cccc3ccccc23)c(=O)n1Cc1ccccc1 [Tideglusib] (top concentration 3000 nM) | -0.3 | 0.5 | -0.3 | -0.3 | -0.3 | -0.3 | -0.3 | -0.3 | 3.4 | 0.3 | -0.3 | -0.3 | -0.3 | -0.3 | -0.3 | -0.3 | 0.4 | -0.3 | -0.3 | -0.3 |
